Data: ChEMBL document CHEMBL1130452, “L-373,890, An achiral, noncovalent, subnanomolar thrombin inhibitor” (Bioorg Med Chem Lett, 1997)

What was measured:
Serine protease 1 = Serine protease 1 (Homo sapiens, UniProt P07477); test: Binding affinity against human trypsin
[1] = biological target: Tissue-type plasminogen activator (Homo sapiens, UniProt P00750); test: Binding affinity against serine protease Tissue type plasminogen activator
Plasma kallikrein = Plasma kallikrein (Homo sapiens, UniProt P03952); test: Binding affinity against serine protease plasma kallikrein; type: cell-free
Chymotrypsinogen A = Chymotrypsinogen A (Bos taurus, UniProt P00766); test: Binding affinity against serine protease […]; type: cell-free
Plasminogen = Plasminogen (Rattus norvegicus, UniProt Q01177); test: Binding affinity against serine protease plasmin
[2] = biological target: Vitamin K-dependent protein C (Homo sapiens, UniProt P04070); test: Binding affinity against serine protease Activated protein C
Prothrombin [3] = biological target: T1, Prothrombin (Homo sapiens, UniProt P00734); test: Binding affinity against human thrombin
Prothrombin [4] = biological target: T1, Prothrombin; test: Binding affinity was evaluated against human thrombin

Chain of Serine protease 1 (P07477 whole entry): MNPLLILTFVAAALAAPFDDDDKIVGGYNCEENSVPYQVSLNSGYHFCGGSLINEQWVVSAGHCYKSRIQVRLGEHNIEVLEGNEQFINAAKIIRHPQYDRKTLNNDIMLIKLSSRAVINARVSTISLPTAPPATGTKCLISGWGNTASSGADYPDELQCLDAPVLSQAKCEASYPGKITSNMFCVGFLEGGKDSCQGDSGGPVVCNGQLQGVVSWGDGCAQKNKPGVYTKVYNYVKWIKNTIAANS
Chain of Plasma kallikrein (P03952 20-390 limits assumed): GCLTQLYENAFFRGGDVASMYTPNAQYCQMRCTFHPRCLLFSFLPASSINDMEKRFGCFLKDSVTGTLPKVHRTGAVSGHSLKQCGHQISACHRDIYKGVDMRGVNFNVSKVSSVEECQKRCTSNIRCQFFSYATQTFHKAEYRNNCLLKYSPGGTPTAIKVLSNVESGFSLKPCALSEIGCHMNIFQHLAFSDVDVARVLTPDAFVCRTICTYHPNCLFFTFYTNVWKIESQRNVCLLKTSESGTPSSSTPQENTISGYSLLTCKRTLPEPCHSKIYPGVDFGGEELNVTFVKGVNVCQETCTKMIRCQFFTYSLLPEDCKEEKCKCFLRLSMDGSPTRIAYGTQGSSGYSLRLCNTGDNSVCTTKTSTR
Chain of Plasma kallikrein (P03952 391-638 limits assumed): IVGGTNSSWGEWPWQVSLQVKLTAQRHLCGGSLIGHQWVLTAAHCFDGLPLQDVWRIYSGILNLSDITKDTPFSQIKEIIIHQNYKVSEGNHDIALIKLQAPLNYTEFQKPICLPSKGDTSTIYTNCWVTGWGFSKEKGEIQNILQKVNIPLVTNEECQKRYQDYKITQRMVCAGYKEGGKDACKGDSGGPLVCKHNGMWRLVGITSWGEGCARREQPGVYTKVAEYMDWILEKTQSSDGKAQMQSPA
Chain of Vitamin K-dependent protein C (P04070 43-197 limits assumed): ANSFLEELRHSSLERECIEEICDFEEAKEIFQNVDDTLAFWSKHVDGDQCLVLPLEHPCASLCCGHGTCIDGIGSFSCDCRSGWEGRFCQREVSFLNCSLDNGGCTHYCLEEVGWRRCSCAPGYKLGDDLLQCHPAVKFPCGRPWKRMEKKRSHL
Chain of Vitamin K-dependent protein C (P04070 212-461 limits assumed): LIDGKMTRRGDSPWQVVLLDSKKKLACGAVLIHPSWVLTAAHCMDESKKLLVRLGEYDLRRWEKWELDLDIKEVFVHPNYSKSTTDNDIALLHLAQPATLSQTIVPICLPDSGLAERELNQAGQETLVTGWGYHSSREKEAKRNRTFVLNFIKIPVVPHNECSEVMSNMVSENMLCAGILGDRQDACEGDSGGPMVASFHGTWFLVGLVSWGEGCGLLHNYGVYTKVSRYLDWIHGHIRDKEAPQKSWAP
Chain of Tissue-type plasminogen activator (P00750 whole entry): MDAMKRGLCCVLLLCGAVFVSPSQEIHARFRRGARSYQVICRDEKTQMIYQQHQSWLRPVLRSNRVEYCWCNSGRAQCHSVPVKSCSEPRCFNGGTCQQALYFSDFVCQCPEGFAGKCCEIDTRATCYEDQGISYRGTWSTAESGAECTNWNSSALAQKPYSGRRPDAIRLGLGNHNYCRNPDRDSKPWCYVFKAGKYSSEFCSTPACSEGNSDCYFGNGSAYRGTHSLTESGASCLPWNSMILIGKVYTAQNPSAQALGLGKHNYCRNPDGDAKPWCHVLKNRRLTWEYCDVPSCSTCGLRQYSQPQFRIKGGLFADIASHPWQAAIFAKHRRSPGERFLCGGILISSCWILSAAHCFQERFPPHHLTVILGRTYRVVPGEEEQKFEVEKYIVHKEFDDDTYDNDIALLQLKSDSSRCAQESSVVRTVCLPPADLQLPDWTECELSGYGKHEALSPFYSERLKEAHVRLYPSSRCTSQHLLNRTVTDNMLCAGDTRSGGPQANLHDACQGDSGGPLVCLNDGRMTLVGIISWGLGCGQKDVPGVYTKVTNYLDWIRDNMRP
Chain of Plasminogen (Q01177 97-581 limits assumed): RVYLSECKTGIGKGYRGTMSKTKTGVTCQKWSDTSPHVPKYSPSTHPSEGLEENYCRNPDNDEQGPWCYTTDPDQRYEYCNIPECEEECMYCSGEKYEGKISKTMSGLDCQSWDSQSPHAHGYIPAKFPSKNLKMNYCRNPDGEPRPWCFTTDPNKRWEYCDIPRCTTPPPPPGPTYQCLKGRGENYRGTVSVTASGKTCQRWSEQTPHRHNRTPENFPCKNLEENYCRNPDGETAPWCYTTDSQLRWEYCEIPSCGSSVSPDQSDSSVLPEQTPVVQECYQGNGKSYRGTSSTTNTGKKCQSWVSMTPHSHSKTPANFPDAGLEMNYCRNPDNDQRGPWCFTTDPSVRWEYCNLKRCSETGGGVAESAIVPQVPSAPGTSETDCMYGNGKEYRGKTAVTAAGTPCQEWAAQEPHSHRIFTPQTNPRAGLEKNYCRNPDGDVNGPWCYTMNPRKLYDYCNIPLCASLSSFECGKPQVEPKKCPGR
Chain of Plasminogen (Q01177 582-812 limits assumed): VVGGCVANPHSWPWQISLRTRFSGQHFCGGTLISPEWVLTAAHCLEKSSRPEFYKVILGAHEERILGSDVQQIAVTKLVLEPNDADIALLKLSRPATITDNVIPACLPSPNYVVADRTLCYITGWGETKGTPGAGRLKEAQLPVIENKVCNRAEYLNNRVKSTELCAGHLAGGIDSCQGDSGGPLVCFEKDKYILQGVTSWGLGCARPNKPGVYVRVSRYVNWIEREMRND

Structure (SMILES) | Ki (Serine protease 1) | Ki (Prothrombin [3]) | other results
Cc1ccc(NS(=O)(=O)Cc2ccccc2)c(=O)n1CC(=O)NC[C@H]1CC[C@H](N)CC1 | 3000 nM |  | 
Cc1ccc(NS(=O)(=O)Cc2ccccc2)c(=O)n1CC(=O)NCC1CCN(C(=N)N)CC1 | 570 nM |  | Ki [1]: > 20000 nM; Ki (Plasma kallikrein): > 20000 nM; Ki (Chymotrypsinogen A): > 20000 nM; Ki (Plasminogen): > 20000 nM; Ki [2]: > 20000 nM
Cc1ccc(NC(=O)CCc2ccccc2)c(=O)n1CC(=O)NCC1CCN(C(=N)N)CC1 | 940 nM | 95 nM | 
CN[C@H](Cc1ccccc1)C(=O)N1CCCC1C(=O)NC[C@H]1CC[C@H](N)CC1 (some centres not stated) |  |  | Ki (Prothrombin [4]): 5 nM
Cc1ccc(S(=O)(=O)Nc2ccc(C)n(CC(=O)NC[C@H]3CC[C@H](N)CC3)c2=O)cc1 | 2100 nM | 47 nM | 
Cc1ccc(NC(=O)c2ccccc2)c(=O)n1CC(=O)NCC1CCN(C(=N)N)CC1 | 1500 nM | 690 nM | 
Cc1ccc(S(=O)(=O)Nc2ccc(C)n(CC(=O)NCC3CCN(C(=N)N)CC3)c2=O)cc1 | 140 nM | 29 nM | 
Cc1ccc(NC(=O)CC(c2ccccc2)c2ccccc2)c(=O)n1CC(=O)NCC1CCN(C(=N)N)CC1 | 890 nM | 166 nM | 
Cc1ccc(NC(=O)OCc2ccccc2)c(=O)n1CC(=O)NCC1CCN(C(=N)N)CC1 | 350 nM | 77 nM | 
Cc1ccc(NCCc2ccccc2)c(=O)n1CC(=O)NC[C@H]1CC[C@H](N)CC1 | 2200 nM | 47 nM | 
